Common to all, as to format: functional, cell-based
One assay has as its system PC-3. Description: Antiproliferative activity against human PC3 cells assessed as cell viability after 48 hrs by MTT assay. The note with it: PC-3, 48 h. For orientation: Formazan colour is commonly taken as a measure of viable cells.
The nature of assay [1]: Antiproliferative activity against human MIAPaCa2 cells assessed as cell viability after 48 hrs by MTT assay. Conditions: MIA PaCa-2, 48 h.
In another assay the test system is HepG2. The assay can be described thus: Antiproliferative activity against human HepG2 cells assessed as cell viability after 48 hrs by MTT assay. The note with it: HepG2, 48 h.
Another assay has as its system HL-60. The assay can be described thus: Cytotoxicity against human HL60 cells.

Structures are written as SMILES.

In general, IC50 refers to the point on the concentration scale where inhibition reaches its midpoint. For `CC(=O)O[C@H]1C(=O)[C@@]2(C)[C@H]([C@H](OC(=O)c3ccccc3)[C@]3(O)C[C@H](OC(=O)[C@H](O)[C@@H](NC(=O)c4ccccc4)c4ccccc4)C(C)=C1C3(C)C)[C@]1(OC(C)=O)CO[C@@H]1C[C@@H]2O` [PACLITAXEL], the results for the concentration for half-maximal inhibition (IC50) (with PC-3; in assay [1]; with HepG2) were 0.012 µM, 0.1 µM and above 100 µM, respectively.
For `CC1(C)[C@@H](OCc2ccccc2I)CC[C@]2(C)[C@H]3C(=O)C=C4[C@@H]5C[C@@](C)(C(=O)O)CC[C@]5(C)CC[C@@]4(C)[C@]3(C)CC[C@@H]12`, in that order: above 20 µM, above 20 µM and above 20 µM.
Consider `CC1(C)[C@@H](O)CC[C@]2(C)[C@H]3C(=O)C=C4[C@@H]5C[C@@](C)(C(=O)O)CC[C@]5(C)CC[C@@]4(C)[C@]3(C)CC[C@@H]12` [ENOXOLONE], for which the IC50 with PC-3 was above 20 µM; in assay [1], above 20 µM; with HepG2 it was above 20 µM; with HL-60 it was 63.2 µM.
Regarding `CC1(C)[C@@H](OCc2ccccc2[N+](=O)[O-])CC[C@]2(C)[C@H]3C(=O)C=C4[C@@H]5C[C@@](C)(C(=O)O)CC[C@]5(C)CC[C@@]4(C)[C@]3(C)CC[C@@H]12`, the half-maximal inhibitory concentration (IC50) (in the assay with PC-3; in assay [1]; with HepG2) was above 20 µM each time.
On to `CC1(C)[C@@H](OCc2ccc(Br)cc2)CC[C@]2(C)[C@H]3C(=O)C=C4[C@@H]5C[C@@](C)(C(=O)O)CC[C@]5(C)CC[C@@]4(C)[C@]3(C)CC[C@@H]12`, for which the IC50 (in the assay on PC-3; in assay [1]; in the assay on HepG2) was above 20 µM in each case.
For the compound `CC1(C)[C@@H](OCc2ccc(F)c(Br)c2)CC[C@]2(C)[C@H]3C(=O)C=C4[C@@H]5C[C@@](C)(C(=O)O)CC[C@]5(C)CC[C@@]4(C)[C@]3(C)CC[C@@H]12`, the half-inhibitory concentration (IC50) (in the assay with PC-3; in assay [1]; in the assay on HepG2) was above 20 µM in each case.
`CC1(C)[C@@H](OCc2ccc(Cl)cc2Cl)CC[C@]2(C)[C@H]3C(=O)C=C4[C@@H]5C[C@@](C)(C(=O)O)CC[C@]5(C)CC[C@@]4(C)[C@]3(C)CC[C@@H]12`: the IC50 is 18 µM in the assay with PC-3, above 100 µM in assay [1] and above 100 µM in the assay on HepG2.
On to `CC1(C)[C@@H](OCc2ccc(Cl)cc2)CC[C@]2(C)[C@H]3C(=O)C=C4[C@@H]5C[C@@](C)(C(=O)O)CC[C@]5(C)CC[C@@]4(C)[C@]3(C)CC[C@@H]12`, for which the concentration for half-maximal inhibition (IC50) (with PC-3; in assay [1]; in the assay with HepG2) was above 20 µM each time.
On to `CC[C@@]1(O)C(=O)OCc2c1cc1n(c2=O)Cc2cc3ccccc3nc2-1` [CAMPTOTHECIN], for which the IC50 is 0.19 µM in assay [1] and 0.2 µM in the assay with HepG2.
Turning to `CO[C@H]1CC[C@]2(C)[C@H]3C(=O)C=C4[C@@H]5C[C@@](C)(C(=O)O)CC[C@]5(C)CC[C@@]4(C)[C@]3(C)CC[C@H]2C1(C)C`, the IC50 (with PC-3; in assay [1]; in the assay with HepG2) was above 20 µM throughout.
In the case of `CC1(C)[C@@H](OCc2ccc(F)cc2)CC[C@]2(C)[C@H]3C(=O)C=C4[C@@H]5C[C@@](C)(C(=O)O)CC[C@]5(C)CC[C@@]4(C)[C@]3(C)CC[C@@H]12`, the half-maximal inhibitory concentration (IC50) in the assay on PC-3 is 9 µM; in assay [1] it was 12 µM; with HepG2, above 100 µM.
For `CC1(C)[C@@H](OCc2ccc(C(F)(F)F)cc2C(F)(F)F)CC[C@]2(C)[C@H]3C(=O)C=C4[C@@H]5C[C@@](C)(C(=O)O)CC[C@]5(C)CC[C@@]4(C)[C@]3(C)CC[C@@H]12`, in that order: above 20 µM, above 20 µM and above 20 µM.
Turning to `CC(C)=CCC/C(C)=C\CO[C@H]1CC[C@]2(C)[C@H]3C(=O)C=C4[C@@H]5C[C@@](C)(C(=O)O)CC[C@]5(C)CC[C@@]4(C)[C@]3(C)CC[C@H]2C1(C)C`, the half-maximal inhibitory concentration (IC50) (in the assay on PC-3; in assay [1]; in the assay with HepG2) was above 20 µM throughout.
Consider `CC1(C)[C@@H](OCc2c(F)cccc2Cl)CC[C@]2(C)[C@H]3C(=O)C=C4[C@@H]5C[C@@](C)(C(=O)O)CC[C@]5(C)CC[C@@]4(C)[C@]3(C)CC[C@@H]12`, for which the values for the IC50 (with PC-3; in assay [1]; with HepG2) were 10 µM, 11 µM and above 100 µM, respectively.
Consider `COc1ccc(CO[C@H]2CC[C@]3(C)[C@H]4C(=O)C=C5[C@@H]6C[C@@](C)(C(=O)O)CC[C@]6(C)CC[C@@]5(C)[C@]4(C)CC[C@H]3C2(C)C)cc1Br`, for which the IC50 (in the assay with PC-3; in assay [1]; in the assay with HepG2) was above 20 µM throughout.
`CC1(C)[C@@H](OCc2ccc3c(c2)OCO3)CC[C@]2(C)[C@H]3C(=O)C=C4[C@@H]5C[C@@](C)(C(=O)O)CC[C@]5(C)CC[C@@]4(C)[C@]3(C)CC[C@@H]12`: the 50% inhibitory concentration (IC50) (with PC-3; in assay [1]; in the assay with HepG2) was above 20 µM each time.
Consider `CC1(C)[C@@H](OCc2cccc([N+](=O)[O-])c2)CC[C@]2(C)[C@H]3C(=O)C=C4[C@@H]5C[C@@](C)(C(=O)O)CC[C@]5(C)CC[C@@]4(C)[C@]3(C)CC[C@@H]12`, for which the IC50 (in the assay with PC-3; in assay [1]; in the assay on HepG2) was above 20 µM throughout.
Turning to `COc1ccc(CO[C@H]2CC[C@]3(C)[C@H]4C(=O)C=C5[C@@H]6C[C@@](C)(C(=O)O)CC[C@]6(C)CC[C@@]5(C)[C@]4(C)CC[C@H]3C2(C)C)cc1OC`, the IC50 (in the assay with PC-3; in assay [1]; in the assay on HepG2) was above 20 µM each time.
Regarding `CC1(C)[C@@H](OCc2cccc(Cl)c2)CC[C@]2(C)[C@H]3C(=O)C=C4[C@@H]5C[C@@](C)(C(=O)O)CC[C@]5(C)CC[C@@]4(C)[C@]3(C)CC[C@@H]12`, the IC50 (in the assay with PC-3; in assay [1]; in the assay with HepG2) was above 20 µM throughout.
For the compound `CC(C)=CCO[C@H]1CC[C@]2(C)[C@H]3C(=O)C=C4[C@@H]5C[C@@](C)(C(=O)O)CC[C@]5(C)CC[C@@]4(C)[C@]3(C)CC[C@H]2C1(C)C`, the half-maximal inhibitory concentration (IC50) (in the assay with PC-3; in assay [1]; in the assay on HepG2) was above 20 µM in each case.

Values taken from ChEMBL document CHEMBL3632524, “3-(2,6-Dichloro-benzyloxy)-11-oxo-olean-12-ene-29-oic acid, a semisynthetic derivative of glycyrrhetic acid: synthesis, antiproliferative, apoptotic and anti-angiogenesis activity” (Medchemcomm, 2015).
